Experimental data: ChEMBL document CHEMBL3769306, “Discovery of Molecular Therapeutics for Glaucoma: Challenges, Successes, and Promising Directions” (J Med Chem, 2016)
pIC50, pKd, pKi: −log10 of the molar value. Blank lines part the entries; values can stand above or below the compound they belong to.

Legend:
[1] = molecular target: Rho-associated protein kinase 1 (Homo sapiens, UniProt Q13464); assay: Inhibition of ROCK1 (unknown origin)
[2] = molecular target: T1, Rho-associated protein kinase 2 (Homo sapiens, UniProt O75116); assay: Inhibition of ROCK2 (unknown origin)
[3] = molecular target: T1, Rho-associated protein kinase 2; assay: Inhibition of ROCK2 (unknown origin) using STK2 as substrate after 1 hr
Adenosine receptor A2a [4] = molecular target: T2, Adenosine receptor A2a (Homo sapiens, UniProt P29274); assay: Displacement of 2-[2-(4-amino-3-[125I]iodophenyl)ethylamino]adenosine from human recombinant adenosine A2A receptor expressed in HEK293 cells; assay type: cell-based
Adenosine receptor A3 = molecular target: T3, Adenosine receptor A3 (Homo sapiens, UniProt P0DMS8); assay: Antagonist activity at human adenosine A3 receptor
T3 sequence (P0DMS8 whole entry): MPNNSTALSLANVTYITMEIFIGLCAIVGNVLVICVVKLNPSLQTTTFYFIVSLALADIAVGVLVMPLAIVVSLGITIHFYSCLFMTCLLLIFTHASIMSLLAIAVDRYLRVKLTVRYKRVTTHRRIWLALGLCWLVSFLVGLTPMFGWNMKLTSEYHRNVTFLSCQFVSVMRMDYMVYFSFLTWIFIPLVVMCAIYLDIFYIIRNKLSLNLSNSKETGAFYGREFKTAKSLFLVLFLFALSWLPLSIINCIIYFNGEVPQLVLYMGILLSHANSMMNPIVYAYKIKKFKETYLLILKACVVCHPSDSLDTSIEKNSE

Adenosine receptor A2a [5] = molecular target: T2, Adenosine receptor A2a; assay: Displacement of [3H]-[…] from human recombinant adenosine A2A receptor

T2 sequence (P29274 whole entry): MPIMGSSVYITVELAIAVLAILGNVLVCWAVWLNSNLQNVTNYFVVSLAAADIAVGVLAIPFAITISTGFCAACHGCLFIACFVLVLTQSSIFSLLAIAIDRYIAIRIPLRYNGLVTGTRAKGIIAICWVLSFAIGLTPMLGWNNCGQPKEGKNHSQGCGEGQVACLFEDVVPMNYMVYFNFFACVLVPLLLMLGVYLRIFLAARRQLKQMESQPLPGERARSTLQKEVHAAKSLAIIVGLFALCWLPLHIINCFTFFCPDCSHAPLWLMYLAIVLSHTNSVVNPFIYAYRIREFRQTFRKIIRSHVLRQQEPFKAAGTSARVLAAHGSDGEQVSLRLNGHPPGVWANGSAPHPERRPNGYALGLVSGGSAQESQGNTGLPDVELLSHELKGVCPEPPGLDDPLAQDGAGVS
T1 sequence (O75116 whole entry): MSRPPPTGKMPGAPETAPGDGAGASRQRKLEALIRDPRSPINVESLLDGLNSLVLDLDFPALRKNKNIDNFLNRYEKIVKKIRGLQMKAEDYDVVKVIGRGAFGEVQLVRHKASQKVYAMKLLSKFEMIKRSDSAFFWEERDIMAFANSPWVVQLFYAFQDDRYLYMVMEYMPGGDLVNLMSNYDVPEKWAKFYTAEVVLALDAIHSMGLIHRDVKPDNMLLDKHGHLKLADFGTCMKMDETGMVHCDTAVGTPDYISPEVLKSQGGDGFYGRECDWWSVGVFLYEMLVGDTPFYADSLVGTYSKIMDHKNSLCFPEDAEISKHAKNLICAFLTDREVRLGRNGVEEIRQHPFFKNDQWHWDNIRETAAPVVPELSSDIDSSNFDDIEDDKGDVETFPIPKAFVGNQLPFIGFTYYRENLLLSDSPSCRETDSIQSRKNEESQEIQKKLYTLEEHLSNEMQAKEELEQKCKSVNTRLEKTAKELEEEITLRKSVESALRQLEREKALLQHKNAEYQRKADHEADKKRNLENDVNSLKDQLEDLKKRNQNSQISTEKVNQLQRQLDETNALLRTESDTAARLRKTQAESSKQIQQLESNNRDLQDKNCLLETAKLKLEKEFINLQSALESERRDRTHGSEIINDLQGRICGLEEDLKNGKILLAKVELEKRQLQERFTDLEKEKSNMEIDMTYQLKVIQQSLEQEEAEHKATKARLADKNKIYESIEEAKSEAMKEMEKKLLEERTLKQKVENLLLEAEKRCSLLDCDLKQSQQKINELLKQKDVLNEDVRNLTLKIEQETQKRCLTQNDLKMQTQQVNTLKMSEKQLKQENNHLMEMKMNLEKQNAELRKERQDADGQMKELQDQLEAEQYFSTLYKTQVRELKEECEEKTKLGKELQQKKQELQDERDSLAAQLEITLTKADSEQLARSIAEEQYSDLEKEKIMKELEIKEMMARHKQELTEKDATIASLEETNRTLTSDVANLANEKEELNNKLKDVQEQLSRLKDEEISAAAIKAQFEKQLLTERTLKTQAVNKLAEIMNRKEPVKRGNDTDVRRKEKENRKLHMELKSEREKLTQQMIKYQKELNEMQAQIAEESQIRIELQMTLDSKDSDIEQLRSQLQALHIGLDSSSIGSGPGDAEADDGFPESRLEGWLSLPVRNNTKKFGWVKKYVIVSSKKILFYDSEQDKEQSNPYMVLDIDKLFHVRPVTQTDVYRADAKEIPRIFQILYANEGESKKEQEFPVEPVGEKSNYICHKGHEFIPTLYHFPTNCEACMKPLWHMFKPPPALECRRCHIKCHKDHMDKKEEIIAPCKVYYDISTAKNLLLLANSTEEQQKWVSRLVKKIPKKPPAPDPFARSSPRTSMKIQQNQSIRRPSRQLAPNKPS
Sequence of Rho-associated protein kinase 1 (Q13464 whole entry): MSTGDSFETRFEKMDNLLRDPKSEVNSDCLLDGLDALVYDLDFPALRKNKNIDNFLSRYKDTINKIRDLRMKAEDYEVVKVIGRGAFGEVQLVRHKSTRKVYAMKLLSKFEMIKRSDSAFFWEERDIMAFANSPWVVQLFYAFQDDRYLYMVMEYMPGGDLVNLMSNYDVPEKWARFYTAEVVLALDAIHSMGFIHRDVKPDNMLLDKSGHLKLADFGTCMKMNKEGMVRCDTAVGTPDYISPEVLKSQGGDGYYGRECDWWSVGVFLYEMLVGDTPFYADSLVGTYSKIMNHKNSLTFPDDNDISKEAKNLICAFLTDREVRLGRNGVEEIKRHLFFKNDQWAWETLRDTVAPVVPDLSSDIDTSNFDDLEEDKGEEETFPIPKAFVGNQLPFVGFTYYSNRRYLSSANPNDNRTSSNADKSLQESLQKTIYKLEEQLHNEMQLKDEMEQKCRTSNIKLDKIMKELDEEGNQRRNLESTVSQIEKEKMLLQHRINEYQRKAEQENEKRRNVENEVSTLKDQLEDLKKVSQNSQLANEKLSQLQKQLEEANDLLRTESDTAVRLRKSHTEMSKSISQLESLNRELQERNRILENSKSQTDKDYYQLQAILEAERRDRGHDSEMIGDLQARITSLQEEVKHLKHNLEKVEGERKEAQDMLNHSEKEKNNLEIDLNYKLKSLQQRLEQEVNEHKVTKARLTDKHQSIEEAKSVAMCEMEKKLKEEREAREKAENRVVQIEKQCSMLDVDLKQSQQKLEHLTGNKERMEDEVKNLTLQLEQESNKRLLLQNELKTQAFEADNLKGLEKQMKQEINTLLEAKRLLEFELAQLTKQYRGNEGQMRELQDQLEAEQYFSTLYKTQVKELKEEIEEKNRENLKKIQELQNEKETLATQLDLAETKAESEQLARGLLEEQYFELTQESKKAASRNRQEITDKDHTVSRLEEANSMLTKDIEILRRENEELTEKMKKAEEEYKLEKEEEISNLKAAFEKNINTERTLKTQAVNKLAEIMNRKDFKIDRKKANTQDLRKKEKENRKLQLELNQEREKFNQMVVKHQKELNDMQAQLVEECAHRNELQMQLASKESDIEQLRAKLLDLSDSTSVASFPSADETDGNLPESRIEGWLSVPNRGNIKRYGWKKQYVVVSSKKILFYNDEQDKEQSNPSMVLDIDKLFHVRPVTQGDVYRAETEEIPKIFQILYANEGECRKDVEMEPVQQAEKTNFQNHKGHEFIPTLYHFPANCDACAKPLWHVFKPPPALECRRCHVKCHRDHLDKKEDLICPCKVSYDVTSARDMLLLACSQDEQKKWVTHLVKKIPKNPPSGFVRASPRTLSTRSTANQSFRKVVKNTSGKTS

pIC50 [1]: 8.22
pIC50 [2]: 8.82
Compound: NC(C(=O)Nc1ccc2cnccc2c1)c1ccccc1 (stereo not given)

pIC50 [3]: 8.52
Compound: CN(C)CCOc1cc(-c2cn[nH]c2)ccc1NC(=O)C1COc2ccccc2O1 (stereo not given) [SR-3677]

pKd (Adenosine receptor A2a [4]): 9.15
Compound: COC(=O)N1CCC(CC#Cc2nc(N)c3ncn([C@@H]4O[C@H](C(=O)NC5CC5)[C@@H](O)[C@H]4O)c3n2)CC1 [EVODENOSON]

Compound: C[C@H]1CNCCCN1S(=O)(=O)c1cccc2cncc(F)c12
pIC50 [2]: 7.72

pKi (Adenosine receptor A3): 6.04
Compound: CNC(=O)[C@H]1O[C@@H](n2cnc3c(NCc4cccc(I)c4)nc(Cl)nc32)[C@H](OC(C)=O)[C@@H]1OC(C)=O

pIC50 [1]: 8.92
pIC50 [2]: 8.96
Compound: NCC(C(=O)Nc1ccc2cnccc2c1)c1ccccc1 (stereo not given)

pKi (Adenosine receptor A2a [5]): 7.31
Compound: N#CCCCCC#Cc1nc(N)c2ncn([C@@H]3O[C@H](CO)[C@@H](O)[C@H]3O)c2n1

pKi (Adenosine receptor A2a [5]): 7.50
Compound: CCCCCCC#Cc1nc(N)c2ncn([C@@H]3O[C@H](CO)[C@@H](O)[C@H]3O)c2n1
